Source: patent US20260224486A1, “DIANHYDROHEXITOL BASED IONIZABLE LIPIDS FOR NUCLEIC ACID DELIVERY” (SANOFI PASTEUR INC., priority 2023, published 2026)

Tested on: BALB/cJ mice
Assay: Delivery of hEPO mRNA by intramuscular administration of LNPs; serum hEPO by ELISA
Format: in vivo, Mouse
Experimental: In summary, lipid screening studies were conducted with female BALB/cJ mice 6-8 weeks of age. Mice were dosed with 0.1 μg in 30 μL of LNPs by a single intramuscular (IM) injection into the gastrocnemius leg muscle. Blood samples were taken 6 and 24 hours post injection and hEPO levels were measured in the blood serum of the mice using an ELISA assay according to the manufacture's protocol.
Treatment Regimen: On Day 1, animals from Groups 1-33 were dosed via intramuscular injection while under light isoflurane anesthesia according to the study design table above. Animals in Groups 1-33 were injected with EPO mRNA LNPs in the right leg only. Groups 1 and 17 animals received MC3 control.
Interim Sample Collections: Interim whole blood (^~50 μL) was collected by tail snip or saphenous vein at 6 and 24 hours post dose administration (±5%). Blood samples were collected into serum separator tubes, allowed to clot at room temperature for at least 10 minutes, centrifuged at ambient temperature at minimum 1000 g for 10 minutes and the serum was extracted. All serum samples were stored at nominally −70° C. until analysis hEPO by the Testing Facility. The results of the EPO analysis were included in the Data Submission.
Terminal Blood Collections: Whole blood was collected via cardiac puncture into serum separator tube, allowed to clot at room temperature for at least 10 minutes, centrifuged at ambient temperature at minimum 1000 g for 10 minutes and the serum was extracted. Serum samples were stored at nominally −70° C. until analyzed for hEPO by the Test Facility.
ELISA Assay: Human erythropoietin (hEPO) levels in sera samples were determined by ELISA kit (R&D systems, Cat #DEP-00) according to the manufactory instruction and the results were included in the Data Submission. The “shaker” protocol was used. The serum samples were diluted between 1:40 and 1:100.

[1] = Table 4, further lipids, mouse serum 6 hours post IM injection of hEPO mRNA LNP as in example 3
[2] = Table 5, comparative ether compounds, mouse serum 6 hours post IM injection of hEPO mRNA LNP as in example 3

SMILES: CCCCCCCCCCC(O)CN(CCCS[C@H]1CO[C@H]2[C@@H]1OC[C@@H]2SCCCN(CC(O)CCCCCCCCCC)CC(O)CCCCCCCCCC)CC(O)CCCCCCCCCC (stereo partly drawn) [Compound 81]
- hEPO 6 Hr (ng/ml) Mean [1]: 2.3 ng/mL

SMILES: CCCCCCCCCCCOC(=O)CCCC(O)CN(CCCC(=O)O[C@@H]1CO[C@H]2[C@@H]1OC[C@H]2OC(=O)CCCN(CC(O)CCCCCOC(=O)C(CCCCCCCC)CCCCCCCC)CC(O)CCCC(=O)OCCCCCCCCCCC)CC(O)CCCCCOC(=O)C(CCCCCCCC)CCCCCCCC (stereo partly drawn) [Compound 12]
- hEPO 6 Hr (ng/ml) Mean [1]: 34.4 ng/mL

SMILES: CCCCCCCCCCC(O)CN(CCCCC(=O)O[C@@H]1CO[C@H]2[C@@H]1OC[C@H]2OC(=O)CCCN(CC(O)CCCCCCCCCC)CC(O)CCCCCCCCCC)CC(O)CCCCCCCCCC (stereo partly drawn) [Compound 56]
- hEPO 6 Hr (ng/ml) Mean [1]: 51.9 ng/mL

SMILES: CCCCCC/C=C\COC(=O)CCCCCC(O)CN(CCCC(=O)N[C@H]1CO[C@H]2[C@@H]1OC[C@@H]2NC(=O)CCCN(CC(O)CCCCCC(=O)OC/C=C\CCCCCC)CC(O)CCCCCC(=O)OC/C=C\CCCCCC)CC(O)CCCCCC(=O)OC/C=C\CCCCCC (stereo partly drawn) [Compound 74]
- hEPO 6 Hr (ng/ml) Mean [1]: 2.1 ng/mL

SMILES: CCCCCCCCCCCOC(=O)CCCC(O)CN(CCCC(=O)N[C@H]1CO[C@H]2[C@@H]1OC[C@@H]2NC(=O)CCCN(CC(O)CCCCCC(=O)OC(CCCCCCCC)CCCCCCCC)CC(O)CCCC(=O)OCCCCCCCCCCC)CC(O)CCCCCC(=O)OC(CCCCCCCC)CCCCCCCC (stereo partly drawn) [Compound 73]
- hEPO 6 Hr (ng/ml) Mean [1]: 23.4 ng/mL

SMILES: CCCCCCCCCCC(O)CN(CCCO[C@@H]1CO[C@H]2[C@@H]1OC[C@H]2OCCCN(CC(O)CCCCCCCCCC)CC(O)CCCCCCCCCC)CC(O)CCCCCCCCCC (stereo partly drawn) [reference compound]
- hEPO 6 Hr (ng/ml) Mean [2]: 33.8 ng/mL

SMILES: CCCCCCCCCCCOC(=O)CCCC(O)CN(CCCCC(=O)O[C@@H]1CO[C@H]2[C@@H]1OC[C@@H]2OC(=O)CCCN(CC(O)CCCCCC(=O)OC(CCCCCCCC)CCCCCCCC)CC(O)CCCC(=O)OCCCCCCCCCCC)CC(O)CCCCCC(=O)OC(CCCCCCCC)CCCCCCCC (stereo partly drawn) [Compound 66]
- hEPO 6 Hr (ng/ml) Mean [1]: 23.2 ng/mL

SMILES: CCCCCCCCC(O)CN(CCCOC(=O)O[C@@H]1CO[C@H]2[C@@H]1OC[C@H]2OC(=O)OCCCN(CC(O)CCCCCCCC)CC(O)CCCCCCCC)CC(O)CCCCCCCC (stereo partly drawn) [Compound 79]
- hEPO 6 Hr (ng/ml) Mean [1]: 21.2 ng/mL

SMILES: CCCCCC/C=C\COC(=O)CCCCCCCN(CCCCCCCC(=O)OC/C=C\CCCCCC)CCCCSC(=O)N[C@@H]1CO[C@H]2[C@@H]1OC[C@H]2NC(=O)SCCCCN(CCCCCCCC(=O)OC/C=C\CCCCCC)CCCCCCCC(=O)OC/C=C\CCCCCC [Compound 85]
- hEPO 6 Hr (ng/ml) Mean [1]: 23.8 ng/mL

SMILES: CCCCCCCCCCCCC(O)CN(CCCCC(=O)SC1CO[C@@H]2C(SC(=O)CCCCN(CC(O)CCCCCCCCCCCC)CC(O)CCCCCCCCCCCC)CO[C@H]12)CC(O)CCCCCCCCCCCC (stereo partly drawn) [Compound 83]
- hEPO 6 Hr (ng/ml) Mean [1]: 8.0 ng/mL

SMILES: CCCCCCCCCCC(O)CN(CCCSS[C@H]1CO[C@H]2[C@@H]1OC[C@@H]2SSCCCN(CC(O)CCCCCCCCCC)CC(O)CCCCCCCCCC)CC(O)CCCCCCCCCC (stereo partly drawn) [Compound 45]
- hEPO 6 Hr (ng/ml) Mean [1]: 2.2 ng/mL

SMILES: CCCCCCCCC(O)CN(CCCCC(=O)N[C@H]1CO[C@H]2[C@@H]1OC[C@@H]2NC(=O)CCCCN(CC(O)CCCCCCCC)CC(O)CCCCCCCC)CC(O)CCCCCCCC (stereo partly drawn) [Compound 70]
- hEPO 6 Hr (ng/ml) Mean [1]: 47.6 ng/mL

SMILES: CCCCCCCCCCCOC(=O)CCCCCN(CCCCCCCC(=O)OC(CCCCCCCC)CCCCCCCC)CCCC(=O)N[C@H]1CO[C@H]2[C@@H]1OC[C@@H]2NC(=O)CCCN(CCCCCCCC(=O)OC(CCCCCCCC)CCCCCCCC)CCCCCC(=O)OCCCCCCCCCCC [Compound 72]
- hEPO 6 Hr (ng/ml) Mean [1]: 6.2 ng/mL

SMILES: CCCCCCCCCCCCCCC(O)CN(CCCC(=O)O[C@@H]1CO[C@H]2[C@@H]1OC[C@@H]2OC(=O)CCCCN(CC(O)CCCCCCCCCC)CC(O)CCCCCCCCCC)CC(O)CCCCCCCCCCCCCC (stereo partly drawn) [Compound 63]
- hEPO 6 Hr (ng/ml) Mean [1]: 60.5 ng/mL

SMILES: CCCCCC/C=C\COC(=O)CCCCCCCN(CCCCCCCC(=O)OC/C=C\CCCCCC)CCCC(=O)N[C@H]1CO[C@H]2[C@@H]1OC[C@@H]2NC(=O)CCCN(CCCCCCCC(=O)OC/C=C\CCCCCC)CCCCCCCC(=O)OC/C=C\CCCCCC [Compound 75]
- hEPO 6 Hr (ng/ml) Mean [1]: 2.1 ng/mL

SMILES: CCCCCCCCCCC(O)CN(CCCC(=O)S[C@H]1CO[C@H]2[C@@H]1OC[C@@H]2SC(=O)CCCN(CC(O)CCCCCCCCCC)CC(O)CCCCCCCCCC)CC(O)CCCCCCCCCC (stereo partly drawn) [Compound 44]
- hEPO 6 Hr (ng/ml) Mean [1]: 2.0 ng/mL

SMILES: CCCCCCCCCCCCC(O)CN(CCCO[C@@H]1CO[C@H]2[C@@H]1OC[C@H]2OCCCN(CC(O)CCCCCCCCCCCC)CC(O)CCCCCCCCCCCC)CC(O)CCCCCCCCCCCC (stereo partly drawn) [reference compound]
- hEPO 6 Hr (ng/ml) Mean [2]: 13.9 ng/mL

SMILES: CCCCCCCCCCC(O)CCN(CCCNC(=O)O[C@@H]1CO[C@H]2[C@@H]1OC[C@H]2OC(=O)NCCCN(CC(O)CCCCCCCCCC)CC(O)CCCCCCCCCC)C(O)CCCCCCCCCC (stereo partly drawn) [Compound 48]
- hEPO 6 Hr (ng/ml) Mean [1]: 81.3 ng/mL

SMILES: CCCCCCCCCCCCC(O)CN(CCCC(=O)S[C@H]1CO[C@H]2[C@@H]1OC[C@@H]2SC(=O)CCCN(CC(O)CCCCCCCCCCCC)CC(O)CCCCCCCCCCCC)CC(O)CCCCCCCCCCCC (stereo partly drawn) [Compound 82]
- hEPO 6 Hr (ng/ml) Mean [1]: 3.1 ng/mL

SMILES: CCCCCCCCC(O)CN(CCCO[C@@H]1CO[C@H]2[C@@H]1OC[C@H]2OCCCN(CC(O)CCCCCCCC)CC(O)CCCCCCCC)CC(O)CCCCCCCC (stereo partly drawn) [reference compound]
- hEPO 6 Hr (ng/ml) Mean [2]: 11.3 ng/mL

SMILES: CCCCC/C=C\C/C=C\CCCCCCCCC(CCCCCCCC/C=C\C/C=C\CCCCC)OC(=O)CCCN(C)C [MC3, reference compound]
- hEPO 6 Hr (ng/ml) Mean (Table 2, isosorbide-derived lipids, mouse serum 6 hours post single IM injection of 0.1 μg hEPO mRNA LNP): 7.1 ng/mL
- hEPO 6 Hr (ng/mL) Mean (Table 3, isomannide-derived lipids, mouse serum 6 hours post single IM injection of 0.1 μg hEPO mRNA LNP): 5.6 ng/mL

SMILES: CCCCCCCCCCC(O)CN(CCCCC(=O)N[C@H]1CO[C@H]2[C@@H]1OC[C@@H]2NC(=O)CCCCN(CC(O)CCCCCCCCCC)CC(O)CCCCCCCCCC)CC(O)CCCCCCCCCC (stereo partly drawn) [Compound 71]
- hEPO 6 Hr (ng/ml) Mean [1]: 72.0 ng/mL

SMILES: CCCCCCCCCCC(O)CN(CCCCCC(=O)O[C@@H]1CO[C@H]2[C@@H]1OC[C@@H]2OC(=O)CCCCN(CC(O)CCCCCCCCCC)CC(O)CCCCCCCCCC)CC(O)CCCCCCCCCC (stereo partly drawn) [Compound 67]
- hEPO 6 Hr (ng/ml) Mean [1]: 34.4 ng/mL

SMILES: CCCCCCCCCCC(O)CN(CCCCS[C@H]1CO[C@H]2[C@@H]1OC[C@@H]2SCCCCN(CC(O)CCCCCCCCCC)CC(O)CCCCCCCCCC)CC(O)CCCCCCCCCC (stereo partly drawn) [Compound 46]
- hEPO 6 Hr (ng/ml) Mean [1]: 2.1 ng/mL

SMILES: CCCCCCCCCCCOC(=O)CCCC(O)CN(CCCC(=O)O[C@H]1CO[C@H]2[C@@H]1OC[C@H]2OC(=O)CCCN(CC(O)CCCCCOC(=O)C(CCCCCCCC)CCCCCCCC)CC(O)CCCC(=O)OCCCCCCCCCCC)CC(O)CCCCCOC(=O)C(CCCCCCCC)CCCCCCCC (stereo partly drawn) [Compound 64]
- hEPO 6 Hr (ng/ml) Mean [1]: 36.2 ng/mL

SMILES: CCCCCCCCCCC(O)CN(CCCCC(=O)S[C@H]1CO[C@H]2[C@@H]1OC[C@@H]2SC(=O)CCCCN(CC(O)CCCCCCCCCC)CC(O)CCCCCCCCCC)CC(O)CCCCCCCCCC (stereo partly drawn) [Compound 80]
- hEPO 6 Hr (ng/ml) Mean [1]: 0.9 ng/mL
